# Measurements as given in patent US12258561B2, “Compositions and methods to promote bone formation and their uses including for the treatment of cancer” (THE RESEARCH FOUNDATION FOR THE STATE UNIVERSITY OF NEW YORK, priority 2014, dated 2025).
# Legend:
# [1] = system: monocyte cultures; experiment: Assay of cell number (MTT) in monocyte cultures; type: cell-based, human; conditions: naloxone added to monocyte cultures
# Source text: Methods: Human Bone Marrow was Collected from Consenting Adult Patients undergoing either an elective primary proximal femoral total hip arthroplasty or elective primary distal femoral total knee arthroplasty (n=6, mean age 65) as a part of an IRB approved study. Human MSC were derived from the adherent fraction of cells derived from each whole bone marrow aspirate collected, while the monocyte population was collected from the non-adherent fraction of the bone marrow. The monocyte fraction was enriched through sub-culture with 100-ng/mL recombinant human macrophage colony-stimulating factor (MCSF; Wyeth). In parallel experiments described below, the femurs from 3-week (n=10) and 16-week (n=20) old male mice were collected and then the bone marrow was flushed from the femur according to the following: A 21-gauge needle was inserted into the femoral intramedular canal after the removal of the proximal and distal ends of the femur. […]
# Assay of Cell Number: Following the addition of 1-mM naloxone or 1-mM naltrexone, viable cell number was determined with the MTT assay. […] MTT was measured at 570-nm and the effects of therapy on cell proliferation were determined by normalizing treated wells relative to mean values from non-treated wells: Fold change in cell number=100*[treated cells optical density/mean control optical density].
# [2] = system: MSC cultures induced to become osteoblasts; experiment: Osteogenesis: mineral formation in MSC with osteoinduction media (alizarin red-S staining); type: cell-based, human
# Source text: Methods: Human Bone Marrow was Collected from Consenting Adult Patients undergoing either an elective primary proximal femoral total hip arthroplasty or elective primary distal femoral total knee arthroplasty (n=6, mean age 65) as a part of an IRB approved study. Human MSC were derived from the adherent fraction of cells derived from each whole bone marrow aspirate collected, while the monocyte population was collected from the non-adherent fraction of the bone marrow. The monocyte fraction was enriched through sub-culture with 100-ng/mL recombinant human macrophage colony-stimulating factor (MCSF; Wyeth). In parallel experiments described below, the femurs from 3-week (n=10) and 16-week (n=20) old male mice were collected and then the bone marrow was flushed from the femur according to the following: A 21-gauge needle was inserted into the femoral intramedular canal after the removal of the proximal and distal ends of the femur. Media was then carefully passed through the proximal end of the femur, which forced the bone marrow to pass out of the bone. Finally, the bone marrow pellet was mechanically disassociated using an 18-gauge needle and then passed through a 70-μm mesh filter. These whole bone marrow aspirates were used to generate osteoclasts. Cells were maintained in Dulbecco's Modification of Eagle's Media (DMEM) containing 10% fetal calf serum (v/v) and 1% penicillin-streptomycin-glutamine (PSG; Cellgro, Mediatech). […] The responsible IACUC committee approved all of the animal studies described in this work.
# Osteogenesis: Osteogenic potential in MSC was assayed by chemically inducing mineral formation. MSC from at least three human patients were seeded at 5×10^3 cells per well and allowed to become confluent and woven prior to the addition of osteo-induction media. Induction media consisted of DMEM containing 20% FCS (v/v) and 1% PSG supplemented with 25-μg/mL of acscorbic-2-phosphate (Sigma), 100-nM dexamethasone (Sigma) and the following dosing regimen of β-glycerophosphate (BGP; Sigma): 1× media change with 5-mM BGP, 1× media change with 10-mM BGP and 1× media change with 20-mM of BGP. Met5-ligand (0-, [5-μM] 2.87-, or [50-μM] 28.7-μg; Sigma), naloxone (0-, 400-fg, 400-pg, 400-ng, 400-μg; Sigma) or naltrexone (0-, 378-fg, 378-pg, 378-ng, 378-μg; Sigma) was added as follows: 1) 1×, with the first addition of osteo-induction media, 2) 2×, with the first and second addition of osteo-induction media and 3) with each post-induction media change. […] After the appearance of mineral nodules, cells were fixed with 70% ice-cold EtOH (Sigma) and then stained using 40-mM alizarin red-S (pH 4.2, Sigma). Osteogenesis experiments were repeated at least twice for each patient.
smiles,measurement,setting,value
C=CCN1CC[C@]23c4c5ccc(O)c4O[C@H]2C(=O)CC[C@@]3(O)[C@H]1C5 [naloxone],proliferation (cell number) in monocyte cultures,[1],decreased proliferation
same,"mineral accumulation, effect against met5",[2]; 1-mM naloxone added with 5-μM or 50-μM met5 and osteoinduction media,abrogate the anti-osteogenic effects of met5
same,mineral accumulation (red staining),[2]; between 1-μM and 1-mM with osteoinduction media,substantially increased mineral accumulation
same,mineral accumulation,"[2]; continuous dosing, with every media change",slightly depressed
same,mineral accumulation,"[2]; double 'pulse' dose (2x), 1-mM, second 72-hours after the first",substantial increase in mineral accumulation
same,mineral accumulation,"[2]; single 'pulse' dose (1x), 1-mM",substantial increase in mineral accumulation
